Several values for one entry are separate records, joined by “and”; a condition that tells them apart may be missing. Identical values can stand only once.
Key:
[1] = biological target: T1, BCMA on MM1R cells (Homo sapiens, UniProt Q02223); assay: In vitro cell binding capacity assay (free SEA-BCMA in patient serum); format: cell-based; conditions: for patients in whom high levels of free SEA-BCMA were maintained throughout the dosing period: Q2wk
T1 construct: endogenous in cells; host or cells: MM1R cells
T1 sequence (Q02223 1-184): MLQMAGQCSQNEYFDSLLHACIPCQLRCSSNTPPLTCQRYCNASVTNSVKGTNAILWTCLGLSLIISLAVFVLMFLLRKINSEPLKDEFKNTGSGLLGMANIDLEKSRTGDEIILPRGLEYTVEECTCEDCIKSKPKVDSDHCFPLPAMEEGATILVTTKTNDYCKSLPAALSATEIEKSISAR
Text: An in vitro cell binding capacity assay was developed to complement serum concentration measurements of total SEA-BCMA, total soluble BCMA, and flow cytometric evaluation of free, unbound BCMA and total BCMA on plasma cells from the bone marrow. The assay measures the ability of free, unbound SEA-BCMA (e.g. not bound by sBCMA) from patient serum to bind and saturate BCMA in-vitro on a BCMA positive cell line. Titrations of known SEA-BCMA concentrations allow for an evaluation of the concentrations of free, unbound SEA-BCMA in patient serum. Together with a measurement of the percent-bound BCMA on the cell surface, this provides a direct indication of the ability of dosed SEA-BCMA to bind and saturate cell membrane-bound BCMA.
After incubation at room temperature for ½ hour, the cells were washed and stained with a saturating amount of SEA-BCMA conjugated to a fluorescent dye. After incubation at 4° C. in the dark for ½ hr, the cells were washed and fixed. Stained cells were analyzed on an Invitrogen Attune NxT flow cytometer. FlowJo V10 software was used to gate on viable cells and record the median fluorescent intensity (MFI). GraphPad Prism 8 was used for analysis.
The recorded MFI was normalized as follows. Normalization to 0% binding is the MFI from a control well incubated in healthy human serum with no SEA-BCMA present. Normalization to 100% binding is the MFI from a control well incubated in healthy human serum spiked with SEA-BCMA to a concentration 200 μg/mL. A titration of SEA-BCMA in healthy human serum may be used to generate a standard curve using the known amounts of SEA-BCMA.
The maintenance of free SEA-BCMA in the patient serum that are able to bind in vitro to the cell-surface BCMA of a BCMA-expressing cell line was investigated.

[2] = tested on: Molp-8 MM target cells; assay: ADCC 51Cr release assay with NK effector cells; format: cell-based; conditions: Molp-8, with vs without 0.2 μM Nirogacestat, NK cells 10:1, 4 h
Protocol: Whether the enhanced FcγRIII signaling translated to increased lysis of MM target cells by SEA-BCMA was determined. Molp-8 MM target cells were incubated with and without 0.2 μM Nirogacestat (purchased from SelleckChem) for 24 hrs. Cells were then Na2 [^51Cr] O4 labeled and added to titrations of SEA-BCMA, or isotype antibody control. Effector cells, NK cells enriched from normal donor PBMC, were added at an effector-to-target cell ratio of 10:1 (50,000:5000). Donor NK cells were of the high affinity FcγRIII V/V genotype. The combination of antibodies, NK cells and target cells were incubated for 4 h at 37° C. with and without Nirogacestat. The radioactivity released into the culture supernatant of lysed target cells was then measured and the percent specific cell lysis calculated. […] This is the primary of mechanism of action of SEA-BCMA and translates to specific enhanced anti-MM lysis. It is expected that this will translate to improvements in anti-MM activity in the clinic when SEA-BCMA is combined with GSIs.

[3] = tested on: MOLP-8 luciferase cells; assay: Disseminated MM mouse tumor xenograft (luminescence); format: in vivo, SCID mice; conditions: SEA-BCMA 3 mg/kg once IP combined with daratumumab 1 mg/kg weekly 5x, N=5
Protocol: Experiments were performed to test whether SEA-BCMA can combine effectively with daratumumab in a disseminated MM mouse tumor xenograft. MOLP-8 luciferase cells were injected IV into SCID animals and allowed to home to the bone marrow. Molp-8 cells express 2000 copies of BCMA and 323,000 copies of CD38 (daratumumab target). When sufficient luminescence was observed, animals were dosed once IP with SEA-BCMA, or SEA non targeted control at 3 mg/kg. Daratumumab was dosed weekly 5× at 1 mg/kg. Median luminescence plotted, N=5. The combination of SEA-BCMA and daratumumab yielded complete remissions in 4 of 5 animals.

[4] = tested on: MM1R myeloma target cells; assay: PBMC-mediated MM1R target cell killing, second experiment (PBMC pretreated 5 days, 0.5 μM pomalidomide); format: cell-based; conditions: combined with Pomalidomide, benchmarked against daratumumab, N=2
Protocol: Experiments were performed to test whether SEA-BCMA combines effectively with pomalidomide in vitro by combining PBMC effector cells with MM1R target cells treated with both pomalidomide and SEA-BCMA or antibody controls. The first experiment (FIG. 12A) benchmarks against MM standard of care elotuzumab and nonfucosylated parent BCMA antibody. The second experiment (FIG. 12B) benchmarks against MM standard of care daratumumab. MM1R target cells express 15,000 copies of BCMA, 12,000 copies of CS1 (elotuzumab target), and 36,000 copies of CD38 (daratumumab target).
In the second experiment (FIG. 12B), normal donor PBMCs of the FcγRIII V/F genotype were treated with or without 0.5 μM pomalidomide (APEx Bio, cat #A4211) for 5 days. The resulting PBMCs were then washed and mixed with CFSE (Invitrogen cat #V12883) labeled MM1R myeloma target cells at an effector-to-target cell ratio of 10:1. The mixture was then treated with a dose range of the following antibodies: SEA-BCMA, daratumumab, or non-binding hIgG1k antibody control (Sigma cat #15154) with or without 0.5 μM pomalidomide (APEx Bio, cat #A4211) and incubated overnight. Percentage live MM1R cells were then determined using the viability dye 7-AAD (BD Biosciences, cat #559925) by flow cytometry.

[5] = tested on: NF-κB p65; assay: NF-κB p65 activity ELISA on nuclear extract; format: cell-based; conditions: NCI-H929, 20 μg/mL SEA-BCMA, 0.2 μM Nirogacestat
Protocol: The secondary mechanism of action of SEA-BCMA is to block BCMA proliferative cell signaling. Increased BCMA from GSI treatment is expected to induce increased BCMA signaling. Therefore, the block of this enhanced signaling by SEA-BCMA was tested. BCMA-expressing NCI-H929 cells were serum-starved with and without 0.2 μM Nirogacestat (purchased from SelleckChem) for 16 hrs. Cells were then bound with and without 20 μg/mL SEA-BCMA and incubated with and without 1 μg/ml recombinant human APRIL (R&D Systems) for 20 minutes at 37° C. in the presence or absence of 0.2 μM Nirogacestat. 1 μg of nuclear extract was assayed in duplicate for NF-κB p65 activity by ELISA (TransAM NFκB Chemi p65, Active Motif).

SEA-BCMA: non-fucosylated monoclonal anti-BCMA antibody having heavy chain SEQ ID NO: 13 and light chain SEQ ID NO: 15
patients in whom high levels of free SEA-BCMA were maintained throughout the dosing period ([1]; 800 mg (or equivalent)): 6/8 and 6 out of 8
patients in whom high levels of free SEA-BCMA were maintained throughout the dosing period ([1]; 1600 mg): 7/7 and all patients
maintenance of >95% bound BCMA in vitro through the dosing interval ([1]; serum of patients dosed 100 mg-400 mg, two doses 14 days apart): not able to maintain >95% bound BCMA in vitro
ADCC (specific cell lysis) [2]: Increased ADCC
complete remissions [3]: 4 of 5
MM1R target cell killing [4]: greater MM1R target cell killing
block of Nirogacestat-increased NF-κB signaling [5]: partially blocked

From US20230118517A1, “METHODS OF TREATING MULTIPLE MYELOMA” (Seagen Inc., priority 2020, published 2023)
